From ChEMBL document CHEMBL4041467, “Synthesis of novel 15-membered 8a-azahomoerythromycin A acylides: Consequences of structural modification at the C-3 and C-6 position on antibacterial activity” (Eur J Med Chem, 2017)
In brackets after ≈: the same amount, converted by molar mass.

Key:
Assay type in all cases: functional
[1] = test system: Streptococcus pneumoniae; assay: Antibacterial activity against erythromycin susceptible Streptococcus pneumoniae by agar microdilution method
[2] = test system: Staphylococcus aureus; assay: Antibacterial activity against erythromycin susceptible Staphylococcus aureus by agar microdilution method
[3] = test system: Streptococcus pyogenes; assay: Antibacterial activity against erythromycin susceptible Streptococcus pyogenes by agar microdilution method
[4] = test system: Haemophilus influenzae; assay: Antibacterial activity against Haemophilus influenzae by agar microdilution method
[5] = test system: Staphylococcus aureus; assay: Antibacterial activity against inducibly macrolide/lincosamide/streptogramin B-resistant Staphylococcus aureus by agar microdilution method
[6] = test system: Streptococcus pneumoniae; assay: Antibacterial activity against Mef-mediated macrolide efflux resistant Streptococcus pneumoniae by agar microdilution method
[7] = test system: Staphylococcus aureus; assay: Antibacterial activity against constitutively macrolide/lincosamide/streptogramin B-resistant Staphylococcus aureus by agar microdilution method
[8] = test system: Streptococcus pneumoniae; assay: Antibacterial activity against constitutively macrolide/lincosamide/streptogramin B-resistant Streptococcus pneumoniae by agar microdilution method
[9] = test system: Streptococcus pyogenes; assay: Antibacterial activity against Mef-mediated macrolide efflux resistant Streptococcus pyogenes by agar microdilution method
[10] = test system: Streptococcus pyogenes; assay: Antibacterial activity against constitutively macrolide/lincosamide/streptogramin B-resistant Streptococcus pyogenes by agar microdilution method

SMILES	MIC [1] [µg/mL]	MIC [2] [µg/mL]	MIC [3] [µg/mL]	MIC [4] [µg/mL]	MIC [5] [µg/mL]	MIC [6] [µg/mL]	MIC [7] [µg/mL]	MIC [8] [µg/mL]	MIC [9] [µg/mL]	MIC [10] [µg/mL]
NCCNc1cc2c(cc1F)c(=O)c(C(=O)O)cn2C1CC1	> 64	> 64	> 64	> 64	–	–	–	–	–	–
C=CCO[C@]1(C)C[C@@H](C)NC(=O)[C@H](C)[C@@H](O)[C@](C)(O)[C@@H](CC)OC(=O)[C@H](C)[C@@H](OC(=O)CCNC(C)Cc2ccc([N+](=O)[O-])cc2)[C@H](C)[C@H]1O[C@@H]1O[C@H](C)C[C@H](N(C)C)[C@H]1O (some centres not stated)	≤ 0.125	1 (≈ 1.16 µM)	≤ 0.125	8 (≈ 9.25 µM)	1 (≈ 1.16 µM)	0.5 (≈ 0.578 µM)	> 64	> 64	1 (≈ 1.16 µM)	> 64
C=CCO[C@]1(C)C[C@@H](C)NC(=O)[C@H](C)[C@@H](O)[C@](C)(O)[C@@H](CC)OC(=O)[C@H](C)[C@@H](OC(=O)CCN2CCN(C(=O)c3ccco3)CC2)[C@H](C)[C@H]1O[C@@H]1O[C@H](C)C[C@H](N(C)C)[C@H]1O	0.5 (≈ 0.578 µM)	2 (≈ 2.31 µM)	0.5 (≈ 0.578 µM)	8 (≈ 9.25 µM)	2 (≈ 2.31 µM)	4 (≈ 4.62 µM)	> 64	> 64	4 (≈ 4.62 µM)	> 64
C=CCO[C@]1(C)C[C@@H](C)NC(=O)[C@H](C)[C@@H](O)[C@](C)(O)[C@@H](CC)OC(=O)[C@H](C)[C@@H](OC(=O)CCNCCCCc2ccccc2)[C@H](C)[C@H]1O[C@@H]1O[C@H](C)C[C@H](N(C)C)[C@H]1O	0.5 (≈ 0.599 µM)	2 (≈ 2.4 µM)	2 (≈ 2.4 µM)	16 (≈ 19.2 µM)	8 (≈ 9.59 µM)	4 (≈ 4.8 µM)	> 64	> 64	2 (≈ 2.4 µM)	> 64
O=C(O)c1cn(C2CC2)c2ccc(N3CCNCC3)cc2c1=O	> 64	> 64	> 64	> 64	–	–	–	–	–	–
C=CCO[C@]1(C)C[C@@H](C)NC(=O)[C@H](C)[C@@H](O)[C@](C)(O)[C@@H](CC)OC(=O)[C@H](C)[C@@H](OC(=O)CCNC(C)C(=O)Nc2ccccc2)[C@H](C)[C@H]1O[C@@H]1O[C@H](C)C[C@H](N(C)C)[C@H]1O (some centres not stated)	0.25 (≈ 0.294 µM)	2 (≈ 2.36 µM)	0.5 (≈ 0.589 µM)	16 (≈ 18.8 µM)	4 (≈ 4.71 µM)	1 (≈ 1.18 µM)	> 64	> 64	2 (≈ 2.36 µM)	> 64
C=CCO[C@]1(C)C[C@@H](C)NC(=O)[C@H](C)[C@@H](O)[C@](C)(O)[C@@H](CC)OC(=O)[C@H](C)[C@@H](OC(=O)CCN(C)CCc2ccccc2)[C@H](C)[C@H]1O[C@@H]1O[C@H](C)C[C@H](N(C)C)[C@H]1O	0.25 (≈ 0.305 µM)	4 (≈ 4.88 µM)	0.5 (≈ 0.61 µM)	16 (≈ 19.5 µM)	4 (≈ 4.88 µM)	2 (≈ 2.44 µM)	> 64	> 64	8 (≈ 9.76 µM)	> 64
C=CCO[C@]1(C)C[C@@H](C)NC(=O)[C@H](C)[C@@H](O)[C@](C)(O)[C@@H](CC)OC(=O)[C@H](C)[C@@H](OC(=O)CCN(C)CCc2ccc([N+](=O)[O-])cc2)[C@H](C)[C@H]1O[C@@H]1O[C@H](C)C[C@H](N(C)C)[C@H]1O	≤ 0.125	0.5 (≈ 0.578 µM)	≤ 0.125	8 (≈ 9.25 µM)	0.5 (≈ 0.578 µM)	–	> 64	> 64	–	> 64
C=CCO[C@]1(C)C[C@@H](C)NC(=O)[C@H](C)[C@@H](OC(=O)C=C)[C@](C)(O)[C@@H](CC)OC(=O)[C@H](C)[C@@H](OC(=O)C=C)[C@H](C)[C@H]1O[C@@H]1O[C@H](C)C[C@H](N(C)C)[C@H]1O	32 (≈ 43.3 µM)	32 (≈ 43.3 µM)	32 (≈ 43.3 µM)	> 64	> 64	> 64	> 64	> 64	> 64	> 64
C=CCO[C@]1(C)C[C@@H](C)NC(=O)[C@H](C)[C@@H](O)[C@](C)(O)[C@@H](CC)OC(=O)[C@H](C)[C@@H](OC(=O)CCN2CCN(c3ccc(F)cc3)CC2)[C@H](C)[C@H]1O[C@@H]1O[C@H](C)C[C@H](N(C)C)[C@H]1O	0.25 (≈ 0.289 µM)	2 (≈ 2.31 µM)	1 (≈ 1.16 µM)	16 (≈ 18.5 µM)	4 (≈ 4.62 µM)	2 (≈ 2.31 µM)	> 64	> 64	2 (≈ 2.31 µM)	> 64
C=CCO[C@]1(C)C[C@@H](C)NC(=O)[C@H](C)[C@@H](O)[C@](C)(O)[C@@H](CC)OC(=O)[C@H](C)[C@@H](OC(=O)CCNC(C)Cc2ccccc2)[C@H](C)[C@H]1O[C@@H]1O[C@H](C)C[C@H](N(C)C)[C@H]1O (some centres not stated)	1 (≈ 1.22 µM)	4 (≈ 4.88 µM)	1 (≈ 1.22 µM)	8 (≈ 9.76 µM)	4 (≈ 4.88 µM)	2 (≈ 2.44 µM)	> 64	> 64	2 (≈ 2.44 µM)	> 64
C=CCO[C@]1(C)C[C@@H](C)NC(=O)[C@H](C)[C@@H](O)[C@](C)(O)[C@@H](CC)OC(=O)[C@H](C)[C@@H](OC(=O)CCNC(C)Cc2ccc(OC)cc2)[C@H](C)[C@H]1O[C@@H]1O[C@H](C)C[C@H](N(C)C)[C@H]1O (some centres not stated)	0.5 (≈ 0.588 µM)	2 (≈ 2.35 µM)	0.25 (≈ 0.294 µM)	16 (≈ 18.8 µM)	2 (≈ 2.35 µM)	2 (≈ 2.35 µM)	> 64	> 64	4 (≈ 4.71 µM)	> 64
C=CCO[C@]1(C)C[C@@H](C)NC(=O)[C@H](C)[C@@H](O)[C@](C)(O)[C@@H](CC)OC(=O)[C@H](C)[C@@H](OC(=O)CCNCCCc2ccccc2)[C@H](C)[C@H]1O[C@@H]1O[C@H](C)C[C@H](N(C)C)[C@H]1O	1 (≈ 1.22 µM)	2 (≈ 2.44 µM)	2 (≈ 2.44 µM)	16 (≈ 19.5 µM)	4 (≈ 4.88 µM)	4 (≈ 4.88 µM)	> 64	> 64	8 (≈ 9.76 µM)	> 64
C=CCO[C@]1(C)C[C@@H](C)NC(=O)[C@H](C)[C@@H](O)[C@](C)(O)[C@@H](CC)OC(=O)[C@H](C)[C@@H](OC(=O)CCNC(C)C(=O)Nc2ccc([N+](=O)[O-])cc2)[C@H](C)[C@H]1O[C@@H]1O[C@H](C)C[C@H](N(C)C)[C@H]1O (some centres not stated)	≤ 0.125	1 (≈ 1.12 µM)	≤ 0.125	8 (≈ 8.95 µM)	1 (≈ 1.12 µM)	0.25 (≈ 0.28 µM)	> 64	> 64	0.5 (≈ 0.559 µM)	> 64
NCCNc1cc2c(=O)c(C(=O)O)cn(C3CC3)c2cc1Cl	> 64	> 64	> 64	> 64	–	–	–	–	–	–
C=CCO[C@]1(C)C[C@@H](C)NC(=O)[C@H](C)[C@@H](O)[C@](C)(O)[C@@H](CC)OC(=O)[C@H](C)[C@@H](OC(=O)C=C)[C@H](C)[C@H]1O[C@@H]1O[C@H](C)C[C@H](N(C)C)[C@H]1O	16 (≈ 23.4 µM)	32 (≈ 46.7 µM)	16 (≈ 23.4 µM)	> 64	> 64	> 64	> 64	> 64	> 64	> 64
CC[C@H]1OC(=O)[C@H](C)C(=O)[C@H](C)[C@@H](O[C@@H]2O[C@H](C)C[C@H](N(C)C)[C@H]2O)[C@](C)(OCC=Cc2cnc3ccccc3c2)C[C@@H](C)C(=O)[C@H](C)[C@H]2NC(=O)O[C@@]21C [CETHROMYCIN]	≤ 0.06	≤ 0.125	≤ 0.06	2 (≈ 2.61 µM)	0.25 (≈ 0.326 µM)	–	> 64	≤ 0.125	≤ 0.125	1 (≈ 1.31 µM)
O=C(O)c1cn(C2CC2)c2cc(N3CCNCC3)c(F)cc2c1=O [CIPROFLOXACIN]	≤ 0.125	≤ 0.125	2 (≈ 6.04 µM)	≤ 0.125	–	0.25 (≈ 0.754 µM)	–	0.25 (≈ 0.754 µM)	≤ 0.125	0.5 (≈ 1.51 µM)
